Results as given in patent US9273318B2, “Induction of thyroid iodide-handling gene expression in human cancers” (THE JOHNS HOPKINS UNIVERSITY, priority 2008, dated 2016).
Entries after “also recorded” stand apart in the source; their conditions may differ. Read-outs that look alike come from different tables or passages of the source.

Key:
KAT10 cells [1] = experiment: MTT cell proliferation assay, KAT10 cells; conditions: 4 μM U0126, 1 μM Akti IV, 5-day course
Protocol: (§4) FIG. 7B) Inhibition of thyroid cancer cell proliferation by suppression of PI3K/Akt and MAP kinase pathways achieved with Akti IV and U0126 individually or in combination (U+A) as indicated. MTT assay was performed to evaluate cell proliferation over a 5-day course of treatment with Akti IV and U0126.

NIS protein [2] = experiment: Flow cytometry and immunofluorescence of NIS protein expression, NPA cells; assay type: cell-based, human; conditions: U0126 10 μM, Akti IV 0.5 μM, 30 h, control 3.4%
Protocol: (§1) FIG. 6A-6D. […] After a serum starvation for 24 h, total RNA was isolated for expression analysis for the indicated thyroid iodide-metabolizing genes. RT-PCR analysis was performed for the expression of NIS in NPA cells. FIG. 6B) Flow cytometric measurement of NIS protein expression. NPA cells were treated with specific inhibitors (upper panel) as described in FIG. 1 or stably transfected with specific siRNAs to knock down BRAF and Akt-1/2, individually or in combination as described in FIG. 3 (lower panel). NIS protein levels were measured by flow cytometry. […] After a 30-h combined treatment with both U0126 and Akti IV (as in FIG. 6B), cells were analyzed by immunofluorescent microscopy using anti-NIS and FITC-coupled secondary antibody and double immunofluorescence with the red color representing 7-AAD nuclear staining and the green color representing NIS expression and localization. […] Cells were then washed and harvested for radioactivity measurement using a gamma-counter as described in the Materials and Methods. Data are expressed as the mean±SD of values from three assays. **, P<0.01, compared with control or empty vector.
(§2) FIG. 14A-14C. […] NIS protein levels were measured by flow cytometry. […] Cells were then washed and harvested for radioactivity measurement using a gamma-counter as described in the Experimental Procedures. […]

[3] = test system: phosphorylation of Akt (p-Akt); experiment: Western blotting of phosphorylated Akt in KAT10 cells; conditions: Akti IV 2 μM, 30 h
Protocol: Effects of suppression of the PI3K/Akt and MAP kinase pathways by specific inhibitors on thyroid cancer cells. […] NPA and KAT10 cells were treated with Akti IV at 0.5 and 2 μM, respectively, or with U0126 at 10 μM for 30 h. Cells were lysed for Western blotting assay. The activities of PI3K/Akt and MAP kinase pathways were reflected by the level of phosphorylated Akt and ERK detected with specific anti-phosphorylated Akt (p-Akt) and anti-phosphorylated ERK (p-ERK) antibodies. Immunoblotting with antibody against β-actin was used for quality control.
Cells were lysed in RIPA buffer (Santa Cruz, Calif.). Cellular proteins were resolved by electrophoresis on a SDS-polyacrylamide (10%) gel (SDS-PAGE), transferred onto PVDF membranes (Amersham Pharmacia Biotech, Piscataway, N.J.), and immunoblotted with specific primary antibodies. Anti-BRAF (Sc-166), anti-phospho-Akt-1/2/3 (Sc-7985-R), anti-phospho-ERK (Sc-7383), and anti-Actin (Sc-1616-R) were purchased from Santa Cruz (Santa Cruz, Calif.). Anti-Akt-1 (#2967) and anti-Akt-2 (#2964) were purchased from Cell Signaling Technologies, Inc. (Beverly, Mass.). Antigen-antibody complexes were visualized using HRP-conjugated anti-mouse (Sc-2005, Santa Cruz, Calif.) or anti-rabbit (Sc-2004, Santa Cruz, Calif.) IgG antibodies and ECL Western Blotting Analysis System (Amersham Pharmacia).

NPA cells [4] = experiment: Radioactive iodide uptake assay, NPA cells; assay type: cell-based, human; conditions: NPA cells treated with inhibitors, 1 μCi Na125I, 1 h
Protocol: as §1, §2

[5] = test system: thyroid genes (Tg, TSHR, NIS, TTF-1, TTF2); experiment: Quantitative real-time PCR of thyroid iodide-metabolizing genes, KAT10 cells; assay type: cell-based, human; conditions: U0126 10 μM, Akti IV 2 μM, 30 h
NPA cells [6] = experiment: MTT cell proliferation assay, NPA cells; conditions: 4 μM U0126, 0.2 μM Akti IV, 5-day course
Protocol: FIG. 1B) Inhibition of cell proliferation by suppression of MAPK and PI3K/Akt pathways achieved with U0126 and Akti IV individually or in combination (U+A) as indicated. MTT assay was performed to evaluate cell proliferation over a 5-day course of treatment with U0126 and Akti IV.
as §4

NIS protein [7] = experiment: Flow cytometry and immunofluorescence of NIS protein expression, KAT10 cells; assay type: cell-based, human; conditions: U0126 10 μM, Akti IV 2 μM, control 8.8%
Protocol: FIG. 14A-14C. […] FIG. 14A) Flow cytometric measurement of NIS protein expression. […] NIS protein levels were measured by flow cytometry. The blue frames indicate the cells expressing NIS protein, including dead (right upper quadrant; positive for both 7-AAD and NIS) and living (right lower quadrant, positive only for NIS) cells. FIG. 14B) Immunofluorescent localization of NIS. After a 30-h combined treatment with both Akti IV and U0126 (as in FIG. 14A), cells were analyzed by immunofluorescent microscopy using anti-NIS and FITC-coupled secondary antibody and double immunofluorescence with the red color representing 7-AAD nuclear staining and the green color representing NIS expression and localization. […] FIG. 14C) In vitro radioiodide uptake. […] Cells were subsequently incubated with 1 μCi Na125I/0.5 ml/well on 12-well plates for 1 h. Cells were then washed and harvested for radioactivity measurement using a gamma-counter as described in the Experimental Procedures. Data are expressed as the mean±SD of values from three assays. **, P<0.01, compared with control or empty vector. […]

[8] = test system: thyroid iodide-handling genes (NIS, TSHR, Tg, TPO, FOXE1, TTF1); experiment: RT-PCR / quantitative RT-PCR of thyroid iodide-handling genes, NPA cells; assay type: cell-based, human; conditions: U0126 10 μM, Akti IV 0.5 μM, 30 h
KAT10 cells [9] = experiment: Radioactive iodide uptake assay, KAT10 cells; assay type: cell-based, human; conditions: KAT10 cells treated with inhibitors, 1 μCi Na125I, 1 h
Protocol: FIG. 14A-14C. […] FIG. 14A) Flow cytometric measurement of NIS protein expression. […] NIS protein levels were measured by flow cytometry. The blue frames indicate the cells expressing NIS protein, including dead (right upper quadrant; positive for both 7-AAD and NIS) and living (right lower quadrant, positive only for NIS) cells. FIG. 14B) Immunofluorescent localization of NIS. After a 30-h combined treatment with both Akti IV and U0126 (as in FIG. 14A), cells were analyzed by immunofluorescent microscopy using anti-NIS and FITC-coupled secondary antibody and double immunofluorescence with the red color representing 7-AAD nuclear staining and the green color representing NIS expression and localization. […] FIG. 14C) In vitro radioiodide uptake. […] Cells were subsequently incubated with 1 μCi Na125I/0.5 ml/well on 12-well plates for 1 h. Cells were then washed and harvested for radioactivity measurement using a gamma-counter as described in the Experimental Procedures. Data are expressed as the mean±SD of values from three assays. **, P<0.01, compared with control or empty vector.
Thyroid cancer cells (1×10^6 cells/well) treated under the indicated conditions were seeded in 12-well plates. […] Cells were collected and radioactivity was counted by a gamma-counter.

[10] = test system: phosphorylation of Akt (p-Akt); experiment: Western blotting of phosphorylated Akt in NPA cells; conditions: Akti IV 0.5 μM, 30 h
Protocol: FIGS. 1A-1C Effects of suppression of the MAPK and PI3K/Akt pathways by specific inhibitors on NPA cells. FIG. 1A) Inhibition of ERK and Akt phosphorylation by suppression of MAPK and PI3K/Akt pathways using the MEK-specific inhibitor U0126 and the Akt-specific inhibitor Akti IV, respectively. NPA cells were treated with U0126 at 10 μM, or with Akti IV at 0.5 μM for 30 h. Cells were lysed for Western blotting assay. The activities of MAPK and PI3K/Akt pathways were reflected by the level of phosphorylated ERK and Akt detected with specific anti-phosphorylated ERK (p-ERK) and anti-phosphorylated Akt (p-Akt) antibodies. Immunoblotting with antibody against β-actin was used for quality control.
Effects of suppression of the PI3K/Akt and MAP kinase pathways by specific inhibitors on thyroid cancer cells. FIG. 7 A) Inhibition of Akt and ERK phosphorylation by suppression of PI3K/Akt and MAP kinase pathways using the Akt-specific inhibitor Akti IV and the MEK-specific inhibitor U0126, respectively. NPA and KAT10 cells were treated with Akti IV at 0.5 and 2 μM, respectively, or with U0126 at 10 μM for 30 h. Cells were lysed for Western blotting assay. The activities of PI3K/Akt and MAP kinase pathways were reflected by the level of phosphorylated Akt and ERK detected with specific anti-phosphorylated Akt (p-Akt) and anti-phosphorylated ERK (p-ERK) antibodies. […]

[11] = test system: phosphorylation of ERK (p-ERK); conditions: NPA cells, U0126 10 μM, 30 h
From the text: Cells were lysed for Western blotting assay.
(§3) FIG. 7A-7C. […] Cells were lysed for Western blotting assay.
Cells were lysed in RIPA buffer.

[12] = test system: phosphorylation of ERK (p-ERK); conditions: KAT10 cells, U0126 10 μM, 30 h
From the text: as §3

| SMILES | inhibition of cell proliferation (MTT) (KAT10 cells [1]) | NIS expression (cells expressing NIS protein, flow cytometry) (NIS protein [2]) [%] | inhibition of phosphorylation of Akt (p-Akt) [3] | radioiodide uptake (NPA cells [4]) | expression of thyroid genes (Tg, TSHR, NIS, TTF1) [5] | inhibition of cell proliferation (MTT) (NPA cells [6]) | NIS expression (cells expressing NIS protein, flow cytometry) (NIS protein [7]) [%] | expression of iodide-handling genes (NIS, TSHR, Tg, TTF1) [8] | Na125I uptake (KAT10 cells [9]) | inhibition of phosphorylation of Akt (p-Akt) [10] | inhibition of phosphorylation of ERK (p-ERK) [11] | inhibition of phosphorylation of ERK (p-ERK) [12] |
| --- | --- | --- | --- | --- | --- | --- | --- | --- | --- | --- | --- | --- |
| CC[n+]1c(/C=C/N(C)c2ccccc2)n(-c2ccccc2)c2ccc(-c3nc4ccccc4s3)cc21.[I-] [Akti IV, Akt inhibitor IV] | partially | 13.7 | strongly inhibited | significantly increased | restored | partially | 29 | restored; also recorded: induced or dramatically enhanced | significantly increased | strongly inhibited | – | – |
| N#CC(=C(/N)Sc1ccccc1N)/C(C#N)=C(\N)Sc1ccccc1N [U0126] | partially | 6 | – | significantly increased | restored | partially | 11.8 | restored; also recorded: induced or dramatically enhanced | significantly increased | – | strongly inhibited | strongly inhibited |
